Measurements: the NIST ThermoML archive (doi:10.1016/j.jct.2016.08.008)
± gives the expanded uncertainty stated by the source.

Experiment: activity coefficient (dimensionless); of the first substance listed, at infinite dilution; xn = mol fraction of the nth substance listed
Settings: 358.15 K; 101.33 kPa; Liquid; Chromatography; x1 = 0

Structure (SMILES) | activity coefficient
CCCCCC [hexane] + CCCCCCCCCCCCn1cc[n+](C)c1.O=S(=O)([N-]S(=O)(=O)C(F)(F)F)C(F)(F)F | 3.2 ± 0.22
CC(C)c1ccccc1 [isopropylbenzene] + CCCCCCCCCCCCn1cc[n+](C)c1.O=S(=O)([N-]S(=O)(=O)C(F)(F)F)C(F)(F)F | 1.32 ± 0.09
CO [methanol] + CCCCCCCCCCCCn1cc[n+](C)c1.O=S(=O)([N-]S(=O)(=O)C(F)(F)F)C(F)(F)F | 1.05 ± 0.07
CCCC(=O)OC [methyl butanoate] + CCCCCCCCCCCCn1cc[n+](C)c1.O=S(=O)([N-]S(=O)(=O)C(F)(F)F)C(F)(F)F | 0.733 ± 0.049
COC(C)=O [methyl ethanoate] + CCCCCCCCCCCCn1cc[n+](C)c1.O=S(=O)([N-]S(=O)(=O)C(F)(F)F)C(F)(F)F | 0.586 ± 0.042
CCC(=O)OC [methyl propanoate] + CCCCCCCCCCCCn1cc[n+](C)c1.O=S(=O)([N-]S(=O)(=O)C(F)(F)F)C(F)(F)F | 0.634 ± 0.044
CC1CCCCC1 [methylcyclohexane] + CCCCCCCCCCCCn1cc[n+](C)c1.O=S(=O)([N-]S(=O)(=O)C(F)(F)F)C(F)(F)F | 2.55 ± 0.17
CCCCCCCCC [nonane] + CCCCCCCCCCCCn1cc[n+](C)c1.O=S(=O)([N-]S(=O)(=O)C(F)(F)F)C(F)(F)F | 5.13 ± 0.35
C=CCCCCCC [oct-1-ene] + CCCCCCCCCCCCn1cc[n+](C)c1.O=S(=O)([N-]S(=O)(=O)C(F)(F)F)C(F)(F)F | 3.29 ± 0.22
CCCCCCCC [octane] + CCCCCCCCCCCCn1cc[n+](C)c1.O=S(=O)([N-]S(=O)(=O)C(F)(F)F)C(F)(F)F | 4.37 ± 0.3
CCCCCO [pentan-1-ol] + CCCCCCCCCCCCn1cc[n+](C)c1.O=S(=O)([N-]S(=O)(=O)C(F)(F)F)C(F)(F)F | 1.3 ± 0.08
CCCC(C)=O [pentan-2-one] + CCCCCCCCCCCCn1cc[n+](C)c1.O=S(=O)([N-]S(=O)(=O)C(F)(F)F)C(F)(F)F | 0.516 ± 0.038
CCC(=O)CC [pentan-3-one] + CCCCCCCCCCCCn1cc[n+](C)c1.O=S(=O)([N-]S(=O)(=O)C(F)(F)F)C(F)(F)F | 0.521 ± 0.039
CCCCC [pentane] + CCCCCCCCCCCCn1cc[n+](C)c1.O=S(=O)([N-]S(=O)(=O)C(F)(F)F)C(F)(F)F | 2.76 ± 0.19
CCCO [propan-1-ol] + CCCCCCCCCCCCn1cc[n+](C)c1.O=S(=O)([N-]S(=O)(=O)C(F)(F)F)C(F)(F)F | 1.16 ± 0.07
CC(C)O [propan-2-ol] + CCCCCCCCCCCCn1cc[n+](C)c1.O=S(=O)([N-]S(=O)(=O)C(F)(F)F)C(F)(F)F | 1.07 ± 0.07
CCCc1ccccc1 [propylbenzene] + CCCCCCCCCCCCn1cc[n+](C)c1.O=S(=O)([N-]S(=O)(=O)C(F)(F)F)C(F)(F)F | 1.3 ± 0.08
c1ccncc1 [pyridine] + CCCCCCCCCCCCn1cc[n+](C)c1.O=S(=O)([N-]S(=O)(=O)C(F)(F)F)C(F)(F)F | 0.451 ± 0.036
C=Cc1ccccc1 [styrene] + CCCCCCCCCCCCn1cc[n+](C)c1.O=S(=O)([N-]S(=O)(=O)C(F)(F)F)C(F)(F)F | 0.771 ± 0.05
C1CCOC1 [tetrahydrofuran] + CCCCCCCCCCCCn1cc[n+](C)c1.O=S(=O)([N-]S(=O)(=O)C(F)(F)F)C(F)(F)F | 0.484 ± 0.037
c1ccsc1 [thiophene] + CCCCCCCCCCCCn1cc[n+](C)c1.O=S(=O)([N-]S(=O)(=O)C(F)(F)F)C(F)(F)F | 0.639 ± 0.044
Cc1ccccc1 [toluene] + CCCCCCCCCCCCn1cc[n+](C)c1.O=S(=O)([N-]S(=O)(=O)C(F)(F)F)C(F)(F)F | 0.832 ± 0.054
O [water] + CCCCCCCCCCCCn1cc[n+](C)c1.O=S(=O)([N-]S(=O)(=O)C(F)(F)F)C(F)(F)F | 3.03 ± 0.21

Same assay, conditions: 368.15 K; 101.33 kPa; Liquid; Chromatography; x1 = 0

Structure (SMILES) | activity coefficient
C1CCCC1 [cyclopentane] + CCCCCCCCCCCCn1cc[n+](C)c1.O=S(=O)([N-]S(=O)(=O)C(F)(F)F)C(F)(F)F | 1.86 ± 0.13
CCCCCCCCCC [decane] + CCCCCCCCCCCCn1cc[n+](C)c1.O=S(=O)([N-]S(=O)(=O)C(F)(F)F)C(F)(F)F | 6.12 ± 0.42
CCOCC [diethyl ether] + CCCCCCCCCCCCn1cc[n+](C)c1.O=S(=O)([N-]S(=O)(=O)C(F)(F)F)C(F)(F)F | 1.2 ± 0.08
CC(C)OC(C)C [diisopropyl ether] + CCCCCCCCCCCCn1cc[n+](C)c1.O=S(=O)([N-]S(=O)(=O)C(F)(F)F)C(F)(F)F | 1.99 ± 0.14
CCCOCCC [dipropyl ether] + CCCCCCCCCCCCn1cc[n+](C)c1.O=S(=O)([N-]S(=O)(=O)C(F)(F)F)C(F)(F)F | 1.94 ± 0.13
CCO [ethanol] + CCCCCCCCCCCCn1cc[n+](C)c1.O=S(=O)([N-]S(=O)(=O)C(F)(F)F)C(F)(F)F | 1.06 ± 0.07
CCOC(C)=O [ethyl acetate] + CCCCCCCCCCCCn1cc[n+](C)c1.O=S(=O)([N-]S(=O)(=O)C(F)(F)F)C(F)(F)F | 0.67 ± 0.045
CCc1ccccc1 [ethylbenzene] + CCCCCCCCCCCCn1cc[n+](C)c1.O=S(=O)([N-]S(=O)(=O)C(F)(F)F)C(F)(F)F | 1.11 ± 0.07
CCCCCCC [heptane] + CCCCCCCCCCCCn1cc[n+](C)c1.O=S(=O)([N-]S(=O)(=O)C(F)(F)F)C(F)(F)F | 3.78 ± 0.26
C=CCCCC [hex-1-ene] + CCCCCCCCCCCCn1cc[n+](C)c1.O=S(=O)([N-]S(=O)(=O)C(F)(F)F)C(F)(F)F | 2.38 ± 0.16
CCCCCC [hexane] + CCCCCCCCCCCCn1cc[n+](C)c1.O=S(=O)([N-]S(=O)(=O)C(F)(F)F)C(F)(F)F | 3.26 ± 0.22
CC(C)c1ccccc1 [isopropylbenzene] + CCCCCCCCCCCCn1cc[n+](C)c1.O=S(=O)([N-]S(=O)(=O)C(F)(F)F)C(F)(F)F | 1.36 ± 0.09
CO [methanol] + CCCCCCCCCCCCn1cc[n+](C)c1.O=S(=O)([N-]S(=O)(=O)C(F)(F)F)C(F)(F)F | 1.01 ± 0.06
CCCC(=O)OC [methyl butanoate] + CCCCCCCCCCCCn1cc[n+](C)c1.O=S(=O)([N-]S(=O)(=O)C(F)(F)F)C(F)(F)F | 0.762 ± 0.05
COC(C)=O [methyl ethanoate] + CCCCCCCCCCCCn1cc[n+](C)c1.O=S(=O)([N-]S(=O)(=O)C(F)(F)F)C(F)(F)F | 0.606 ± 0.042
CCC(=O)OC [methyl propanoate] + CCCCCCCCCCCCn1cc[n+](C)c1.O=S(=O)([N-]S(=O)(=O)C(F)(F)F)C(F)(F)F | 0.659 ± 0.045
CC1CCCCC1 [methylcyclohexane] + CCCCCCCCCCCCn1cc[n+](C)c1.O=S(=O)([N-]S(=O)(=O)C(F)(F)F)C(F)(F)F | 2.58 ± 0.18

Structure (SMILES) | activity coefficient
CCCCCCCCC [nonane] + CCCCCCCCCCCCn1cc[n+](C)c1.O=S(=O)([N-]S(=O)(=O)C(F)(F)F)C(F)(F)F | 5.17 ± 0.35
C=CCCCCCC [oct-1-ene] + CCCCCCCCCCCCn1cc[n+](C)c1.O=S(=O)([N-]S(=O)(=O)C(F)(F)F)C(F)(F)F | 3.35 ± 0.23
CCCCCCCC [octane] + CCCCCCCCCCCCn1cc[n+](C)c1.O=S(=O)([N-]S(=O)(=O)C(F)(F)F)C(F)(F)F | 4.42 ± 0.3
CCCCCO [pentan-1-ol] + CCCCCCCCCCCCn1cc[n+](C)c1.O=S(=O)([N-]S(=O)(=O)C(F)(F)F)C(F)(F)F | 1.26 ± 0.08
CCCC(C)=O [pentan-2-one] + CCCCCCCCCCCCn1cc[n+](C)c1.O=S(=O)([N-]S(=O)(=O)C(F)(F)F)C(F)(F)F | 0.539 ± 0.039
CCC(=O)CC [pentan-3-one] + CCCCCCCCCCCCn1cc[n+](C)c1.O=S(=O)([N-]S(=O)(=O)C(F)(F)F)C(F)(F)F | 0.546 ± 0.04
CCCCC [pentane] + CCCCCCCCCCCCn1cc[n+](C)c1.O=S(=O)([N-]S(=O)(=O)C(F)(F)F)C(F)(F)F | 2.81 ± 0.19
CCCO [propan-1-ol] + CCCCCCCCCCCCn1cc[n+](C)c1.O=S(=O)([N-]S(=O)(=O)C(F)(F)F)C(F)(F)F | 1.11 ± 0.07
CC(C)O [propan-2-ol] + CCCCCCCCCCCCn1cc[n+](C)c1.O=S(=O)([N-]S(=O)(=O)C(F)(F)F)C(F)(F)F | 1.02 ± 0.06
CCCc1ccccc1 [propylbenzene] + CCCCCCCCCCCCn1cc[n+](C)c1.O=S(=O)([N-]S(=O)(=O)C(F)(F)F)C(F)(F)F | 1.35 ± 0.09
c1ccncc1 [pyridine] + CCCCCCCCCCCCn1cc[n+](C)c1.O=S(=O)([N-]S(=O)(=O)C(F)(F)F)C(F)(F)F | 0.466 ± 0.036
C=Cc1ccccc1 [styrene] + CCCCCCCCCCCCn1cc[n+](C)c1.O=S(=O)([N-]S(=O)(=O)C(F)(F)F)C(F)(F)F | 0.804 ± 0.052
C1CCOC1 [tetrahydrofuran] + CCCCCCCCCCCCn1cc[n+](C)c1.O=S(=O)([N-]S(=O)(=O)C(F)(F)F)C(F)(F)F | 0.508 ± 0.038
c1ccsc1 [thiophene] + CCCCCCCCCCCCn1cc[n+](C)c1.O=S(=O)([N-]S(=O)(=O)C(F)(F)F)C(F)(F)F | 0.658 ± 0.045
Cc1ccccc1 [toluene] + CCCCCCCCCCCCn1cc[n+](C)c1.O=S(=O)([N-]S(=O)(=O)C(F)(F)F)C(F)(F)F | 0.864 ± 0.055
O [water] + CCCCCCCCCCCCn1cc[n+](C)c1.O=S(=O)([N-]S(=O)(=O)C(F)(F)F)C(F)(F)F | 2.78 ± 0.19
